Reference: patent publication US8759510B2, “Nucleoside cyclicphosphates” (Gilead Pharmasset LLC, priority 2008, dated 2014)
Read-outs that look alike come from different tables or passages of the source.

System: HCV replicon RNA-containing Huh7 cells (clone A cells)
Assay: HCV replicon assay
Assay type: cell-based
Conditions: incubation 4 days, replicon RNA by RT-PCR, ΔCt of 3.3 = 1-log 10 reduction (EC90)
Procedure: HCV replicon assay. HCV replicon RNA-containing Huh7 cells (clone A cells; Apath, LLC, St. Louis, Mo.) were kept at exponential growth in Dulbecco's modified Eagle's medium (high glucose) containing 10% fetal bovine serum, 4 mM L-glutamine and 1 mM sodium pyruvate, 1× nonessential amino acids, and G418 (1,000 μg/ml). Antiviral assays were performed in the same medium without G418. Cells were seeded in a 96-well plate at 1,500 cells per well, and test compounds were added immediately after seeding. Incubation time 4 days. At the end of the incubation step, total cellular RNA was isolated (RNeasy 96 kit; Qiagen). Replicon RNA and an internal control (TaqMan rRNA control reagents; Applied Biosystems) were amplified in a single-step multiplex RT-PCR protocol as recommended by the manufacturer. The HCV primers and probe were designed with Primer Express software (Applied Biosystems) and covered highly conserved 5′-untranslated region (UTR) sequences (sense primer: 5′-AGCCATGGCGTTAGTA(T)GAGTGT-3′ (SEQ ID NO: 1); antisense primer: 5′-TTCCGCAGACCACTATGG-3′ (SEQ ID NO:2); and probe; 5′-FAM-[…]-TAMRA-3′ (SEQ ID NO:3)).
To express the antiviral effectiveness of a compound, the threshold RT-PCR cycle of the test compound was subtracted from the average threshold RT-PCR cycle of the no-drug control (ΔCtHCV). A ΔCt of 3.3 equals a 1-log 10 reduction (equal to the 90% effective concentration [EC90]) in replicon RNA levels. The cytotoxicity of the test compound could also be expressed by calculating the ΔCtrRNA values. The ΔΔCt specificity parameter could then be introduced (ΔCtHCV-ΔCtrRNA), in which the levels of HCV RNA are normalized for the rRNA levels and calibrated against the no-drug control.

[1] = Huh7 clone A replicon cells, read-out: CloneA EC90
[2] = Hepatitis C virus, Huh-7, 96 h, Huh7 clone A replicon cells, read-out: CloneA EC90
[3] = read-out: CloneA EC90, Huh7 clone A replicon cells
[4] = Hepatitis C virus, Huh-7, 96 h, read-out: CloneA EC90, Huh7 clone A replicon cells

SMILES | EC90 [2] | other results
CCOc1nc(N)nc2c1ncn2[C@@H]1O[C@@H]2COP(=O)(OC)O[C@H]2[C@@]1(C)F (stereo partly drawn) [Compound 18, 6-Ethoxy-9-((4aR,6R,7R,7aR)-7-fluoro-2-methoxy-7-methyl-2-oxo-tetrahydro-2,5-furo[3,2-d][1,3,2]dioxaphosphinin-6-yl)-9H-purin-2-ylamine] | – | EC90 [1]: 480 nM
CCOc1nc(N)nc2c1ncn2[C@@H]1O[C@@H]2COP(=O)(OC(C)C)O[C@H]2[C@@]1(C)F (stereo partly drawn) [Compound 19, 6-Ethoxy-9-((4aR,6R,7R,7aR)-7-fluoro-2-isopropoxy-7-methyl-2-oxo-tetrahydro-2,5-furo[3,2-d][1,3,2]dioxaphosphinin-6-yl)-9H-purin-2-yl amine] | – | EC90 [1]: 600 nM
COc1nc(N)nc2c1ncn2[C@@H]1O[C@@H]2CO[P@](=O)(OC(C)C)O[C@H]2[C@@]1(C)F (single isomer, unassigned) [Example 43b] | 60 nM | –
C[C@@]1(F)[C@@H]2O[P@@](=O)(OCc3ccccc3)OC[C@H]2O[C@H]1n1ccc(=O)[nH]c1=O [Compound 2b, 1-((2S,4aR,6R,7R,7aR)-2-Benzyloxy-7-fluoro-7-methyl-2-oxo-tetrahydro-2λ^5-furo[3,2-d][1,3,2]dioxaphosphinin-6-yl)-1H-pyrimidine-2,4-dione] | 17700 nM | –
C[C@@]1(F)[C@@H]2O[P@@](=O)(OC3CCCC3)OC[C@H]2O[C@H]1n1cnc2c(N3CCC3)nc(N)nc21 [Example 32b, 6-Azetidin-1-yl-9-((4aR,6R,7R,7aR)-2-cyclopentyloxy-7-fluoro-7-methyl-2-oxo-tetrahydro-2λ^5-furo[3,2-d][1,3,2]dioxaphosphinin-6-yl)-9H-purin-2-ylamine] | 4700 nM | –
CCOc1nc(N)nc2c1ncn2[C@@H]1O[C@@H]2COP(=O)(O)O[C@H]2[C@@]1(C)F [Example 45, (4aR,6R,7R,7aR)-6-(2-Amino-6-ethoxy-purin-9-yl)-7-fluoro-7-methyl-2-oxo-tetrahydro-2λ^5-furo[3,2-d][1,3,2]dioxaphosphinin-2-ol] | 700 nM | –
CO[P@@]1(=O)OC[C@H]2O[C@@H](n3ccc(=O)[nH]c3=O)[C@](C)(F)[C@@H]2O1 [Compound 1a, 1-((2S,4aR,6R,7R,7aR)-7-Fluoro-2-methoxy-7-methyl-2-oxo-tetrahydro-2λ^5-furo[3,2-d][1,3,2]dioxaphosphinin-6-yl)-1H-pyrimidine-2,4-dione] | – | EC90 [3]: 5350 nM
COc1nc(N)nc2c1ncn2[C@@H]1O[C@@H]2COP(=O)(OC(C)C)O[C@H]2[C@@]1(C)F (single isomer, unassigned) [Example 43a] | 290 nM | –
C[C@@]1(F)[C@@H]2O[P@](=O)(OCC3CC3)OC[C@H]2O[C@H]1n1cnc2c(O)nc(N)nc21 (single isomer, unassigned) [Example 38b] | 26600 nM | –
COc1nc(N)nc2c1ncn2[C@@H]1O[C@@H]2COP(=O)(O)O[C@H]2[C@@]1(C)F [Example 41, (4aR,6R,7R,7aR)-6-(2-Amino-6-methoxy-purin-9-yl)-7-fluoro-7-methyl-2-oxo-tetrahydro-2λ^5-furo[3,2-d][1,3,2]dioxaphosphinin-2-ol] | 98 nM | –
COc1nc(N)nc2c1ncn2[C@@H]1O[C@@H]2COP(=O)(OCc3ccccc3)O[C@H]2[C@@]1(C)F (stereo in doubt) [Example 44, 9-((2R,4aR,6R,7R,7aR)-2-Benzyloxy-7-fluoro-7-methyl-2-oxo-tetrahydro-2λ^5-furo[3,2-d][1,3,2]dioxaphosphinin-6-yl)-6-methoxy-9H-purin-2-ylamine] | 53 nM | –
C[C@@]1(F)[C@@H]2O[P@@](=O)(OCc3ccccc3)OC[C@H]2O[C@H]1n1ccc(=O)[nH]c1=O (single isomer, unassigned) [Compound 2a] | 25200 nM | –
C[C@@]1(F)[C@@H]2O[P@](=O)(OC3CCCC3)OC[C@H]2O[C@H]1n1cnc2c(N3CCC3)nc(N)nc21 [Example 32a, 6-Azetidin-1-yl-9-((4aR,6R,7R,7aR)-2-cyclopentyloxy-7-fluoro-7-methyl-2-oxo-tetrahydro-2λ^5-furo[3,2-d][1,3,2]dioxaphosphinin-6-yl)-9H-purin-2-ylamine] | 8540 nM | –
CO[P@@]1(=O)OC[C@H]2O[C@@H](n3ccc(=O)[nH]c3=O)[C@](C)(F)[C@@H]2O1 [Compound 1b, 1-((2S,4aR,6R,7R,7aR)-7-Fluoro-2-methoxy-7-methyl-2-oxo-tetrahydro-2λ^5-furo[3,2-d][1,3,2]dioxaphosphinin-6-yl)-1H-pyrimidine-2,4-dione] | – | EC90 [3]: 17400 nM
CCOc1nc(N)nc2c1ncn2[C@@H]1O[C@@H]2CO[P@](=O)(OCc3ccccc3)O[C@H]2[C@@]1(C)F [Example 48, 9-((4aR,6R,7R,7aR)-2-Benzyloxy-7-fluoro-7-methyl-2-oxo-tetrahydro-2λ5-furo[3,2-d][1,3,2]dioxaphosphinin-6-yl)-6-ethoxy-9H-purin-2-ylamine] | 320 nM | –
CO[P@]1(=O)OC[C@H]2O[C@@H](n3ccc(N)nc3=O)[C@](C)(F)[C@@H]2O1 [Compound 5, 4-Amino-1-((2R,4aR,6R,7R,7aR)-7-fluoro-2-methoxy-7-methyl-2-oxo-tetrahydro-2λ^5-furo[3,2-d][1,3,2]dioxaphosphinin-6-yl)-1H-pyrimidin-2-one] | – | EC90 [4]: 8060 nM
COP1(=O)OC[C@H]2O[C@@H](n3cnc4c(O)nc(N)nc43)[C@](C)(F)[C@@H]2O1 (stereo partly drawn) [Compound 4, 2-Amino-9-((4aR,6R,7R,7aR)-7-fluoro-2-methoxy-7-methyl-2-oxo-tetrahydro-2λ^5-furo[3,2-d][1,3,2]dioxaphosphinin-6-yl)-9H-purin-6-ol] | – | EC90 [4]: 11700 nM
COP1(=O)OC[C@H]2O[C@@H](n3cnc4c(N5CCC5)nc(N)nc43)[C@](C)(F)[C@@H]2O1 (stereo partly drawn) [Compound 3, 6-Azetidin-1-yl-9-((4aR,6R,7R,7aR)-7-fluoro-2-methoxy-7-methyl-2-oxo-tetrahydro-2λ^5-furo[3,2-d][1,3,2]dioxaphosphinin-6-yl)-9H-purin-2-ylamine] | – | EC90 [3]: 750 nM
COP1(=O)OC[C@H]2O[C@@H](n3cnc4c(NC5CCC5)nc(N)nc43)[C@](C)(F)[C@@H]2O1 (stereo partly drawn) [Compound 6, N^6-Cyclobutyl-9((4aR,6R,7R,7aR)-7-fluoro-2-methoxy-7-methyl-2-oxo-tetrahydro-2λ^5-furo[3,2-d][1,3,2]dioxaphosphinin-6-yl)-9H-purine-2,6-diamine] | – | EC90 [4]: 1550 nM
